These results are taken from ChEMBL document CHEMBL1201862, “PubChem BioAssay data set” (2004).

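Five compound concentrations were applied to cells in 96-well plates for 48 hours; endpoints were derived by simple linear interpolation of the resulting dose-response curve. Here, GI50 denotes the concentration required for 50% inhibition of growth.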 Active and inactive are the calls of the source. Cut-off read from the data, not from the text of the source: active = GI50 up to about 1.1 µM and inactive = higher.

Holding throughout (experiment): growth of human tumour cells (NCI), 48 h
Assay [1] concerns SF-539.
Assay [2] concerns MDA-N.
The subject of assay [3] is SF-268.
Assay [4] deals with SN12C.
In assay [5] the test system is MCF7.
The subject of assay [6] is Malme-3M.
Assay [7] has as its system OVCAR-3.
The subject of assay [8] is MDA-MB-231.
For assay [9], the system named is OVCAR-8.
The test system of assay [10] is HCT-116.
Assay [11] deals with ACHN.
Assay [12] relates to SF-295.
Assay [13] concerns U-251.
Assay [14] concerns A498.
For assay [15], the system named is OVCAR-4.
Assay [16] deals with LXFL 529.
Assay [17] deals with SNB-19.
The subject of assay [18] is HCC 2998.
The subject of assay [19] is HL-60.
Assay [20] deals with EKVX.

On to `CC(=O)C1(O)Cc2c(O)c3c(c(O)c2C(OC2CC(N)C(O)C(C)O2)C1)C(=O)c1ccccc1C3=O` (stereo not drawn), for which the GI50 is 0.0163 µM (active) in assay [1]; 0.112 µM (active) in assay [2]; 0.0215 µM (active) in assay [3]; 0.0207 µM (active) in assay [4]; 0.00458 µM (active) in assay [5]; 0.01 µM (active) in assay [6]. In addition, the GI50 in assay [7] is 0.178 µM (active); in assay [8], 0.252 µM (active); in assay [9], 0.0327 µM (active); in assay [10] it was 0.0279 µM (active); in [11] it was 0.00438 µM (active); in assay [12], 0.0141 µM (active). Besides, the GI50 was 0.0255 µM (active) in assay [13]; 0.0115 µM (active) in [14]; 0.327 µM (active) in [15]; < 0.0219 µM (active) in assay [16]; 0.0373 µM (active) in [17]; 0.0385 µM (active) in [18]. For the same compound, the GI50 is 0.00206 µM (active) in assay [19] and 0.193 µM (active) in [20].
On to `CNC(=O)OCc1nc(SC(C)C)n(C)c1COC(=O)NC`, for which the GI50 in [1] is > 100 µM (inactive); in [3] it was > 91.6 µM (inactive); in [4], > 100 µM (inactive); in assay [5], > 100 µM (inactive); in assay [6], > 100 µM (inactive); in assay [7], > 100 µM (inactive). In addition, the GI50 in assay [9], in [10], in assay [11], in assay [12], in assay [13] and in assay [14] was > 100 µM (inactive) in each case. The GI50 in assay [15] is > 100 µM (inactive); in assay [16], > 100 µM (inactive); in assay [17] it was > 100 µM (inactive); in [18], > 100 µM (inactive); in assay [19] it was 57 µM (inactive); in assay [20], > 100 µM (inactive).
Regarding `O=C(NP(=O)(N1CC1)N1CC1)c1cc(I)ccc1I` [DIIODBENZOTEPH], the GI50 in [1] is 23.9 µM (inactive); in assay [2] it was > 73.6 µM (inactive); in assay [3], 27.3 µM (inactive); in assay [4], 26.8 µM (inactive); in assay [5], 38 µM (inactive); in assay [6], 50.4 µM (inactive). The GI50 was 36.6 µM (inactive) in assay [7]; > 100 µM (inactive) in assay [8]; 31.2 µM (inactive) in assay [9]; 40.3 µM (inactive) in [10]; 6.05 µM (inactive) in assay [11]; 30 µM (inactive) in [12]. Further, the GI50 was 24.6 µM (inactive) in [13]; 64.4 µM (inactive) in assay [14]; 77.3 µM (inactive) in assay [15]; > 100 µM (inactive) in assay [16]; 53.7 µM (inactive) in assay [17]; > 67.9 µM (inactive) in assay [18]. The figures for the GI50 in [19] and in [20] were 5.06 µM (inactive) and 78 µM (inactive), respectively.
